Source: patent publication US20130244875A1, “METHODS AND COMPOSITIONS FOR IMPROVING PLANT HEALTH” (priority 2006, published 2013)
Where “and” joins values, the source holds several entries; their conditions need not be identical. Equal values may be shown once. Read-outs that look alike come from different tables or passages of the source.

What was measured:
DMOxRR2Y soybean stack = assay: 2,4-D postemergence injury on DMOxRR2Y soybean; assay type: in vivo; details: V3, 3, 30, 60, 120 and 280 g ae/ha, all rates, 20 days after treatment
Excerpt: A rate titration of 2,4-D (2,4-D amine, Helena Chemical Co., Memphis, Tenn.) was applied as postemergence (POST) treatment at V3 growth state of breeding stack of DMO soybean and RR2Y (RR2Y is MON89788 event, U.S. application Ser. No. 11/441,914) transgenic soybean. 2,4-D was applied as a postemergence (POST) treatment (V3) at 5 application rates on DMOxRR2Y soybean stack and compared for total crop injury across all application rates. The POST herbicide application rates used for this trial were 3 g ae/ha (acid equivalent/hectare), 30 g ae/ha, 60 g ae/ha, 120 g ae/ha and 280 g ae/ha of 2,4-D. The treated plants were rated for 2,4-D symptoms 20 days after treatment.

[1] = system: haploid seeds of corn genotype 01DKD2; assay: Haploid corn seed pretreatment before colchicine doubling; assay type: in vivo; details: seeds imbibed 24 hours before 0.0625% colchicine; for Doubling efficiency: water 5; for 10 inch pot survival: water 53; for Percent Pollination: water 81; for Percent germination: water 90
Method: The use of these chemicals during the doubling process is toxic and stressful to the treated plant or seed. […] To determine quantify the effect of acetyl salicylic acid (ASA) and salicylic acid (SA) on plant health of haploid plants subjected to colchicine treatments, haploid seeds of corn genotype 01DKD2 were treated with 100-500 microMolar (μM) of DCSA, ASA, or SA or combinations thereof by imbibing the seeds in a solution of the compound for 24 hours before colchicine treatment of the seeds. A solution of 0.0625% colchicine (Sigma Aldrich, St. Louis, Mo. Cat#C3915) and 1.5% DMSO (Sigma Aldrich, St. Louis, Mo. Cat#D8779) was used to treat the seeds and the seeds incubated in the solution at 25° C. for 5 days in the dark. The germination rate, survival rate of the treated plants, fertility, and doubling rate were measured.

soybean plants [2] = assay: Copper injury on soybeans; assay type: in vivo; details: 1000 ppm copper sulfate foliar spray alone; soybean V1-2; 5 days after treatment
Excerpt: Plants are sensitive to heavy metal toxicity. Heavy metals are present in the environment or sometimes applied to plants for pest control. Symptoms of plant injury following treatment with a heavy metal compound, for example, a compound containing copper, are necrotic leaf spotting and flecking with more severe injury resulting in larger reddish brown spots, […] necrosis and/or necrotic puckered leaves.

[3] = system: Verticillium (isolate King); assay: Verticillium wilt protection in cotton, isolate King; assay type: in vivo, Verticillium dahliae; details: cotton ST6611, DCSA 1 lb/A, glyphosate 0.75 lb/A, 24 hours before inoculation
Excerpt: (§1) DCSA was unexpectedly found to provide protection to cotton plants against Verticillium dahliae, causal agent of cotton wilt disease (Table 6). Cotton plants of the variety ST6611, BOLLGARD 2, ROUNDUP READY FLEX, were inoculated with a moderate isolate (DPL) or a virulent isolate (King) of Verticillium by a seedling dipping method. Seedlings at the first true leaf stage were taken out from the pots, one inch of roots were cut off, seedlings were dipped in a spore slurry for one minute, and then transplanted back in the pots. These strains were isolated and provided by Dr. Terry Wheeler (Texas A&M University, TX USA). DCSA was applied at the rate of 1 lb/A and glyphosate (ROUNDUP WEATHERMAX, Monsanto Company, St. Louis, Mo.) at the rate of 0.75 lb/A 24 hours before inoculation. Protection against Verticillium was measured on a disease severity scale of 1-9:1 being healthy and 9 being dead because of disease, and also was measured as the number of plants that survived out of 10 inoculated plants.

[4] = system: Verticillium (isolate DPL); assay: Verticillium wilt protection in cotton, isolate DPL; assay type: in vivo, Verticillium dahliae; details: cotton ST6611, DCSA 1 lb/A, glyphosate 0.75 lb/A, 24 hours before inoculation
Excerpt: as §1

cotton plants = assay: Paraquat (Gramoxone) oxidative stress injury in cotton; assay type: in vivo; details: 2 DAT, DCSA (if given) 1 lb/Acre 24 hours before
Method: Four different cotton cultivars as indicated in Table 3 were grown in 4-inch pots for two weeks. These cotton plants were either sprayed with DCSA (BASF) at the 1 lb/A rate, or unsprayed (no DCSA application, as control). Experimental plants (treated with DCSA and untreated) were sprayed with Paraquat (Gramoxone®; Syngenta) at 30 gm/ha, 70 gm/ha, and 100 gm/ha rates, 24 hours after the application of DCSA, to simulate oxidative stress. […] The same experiment was repeated at two different growth stages of cotton (2 nodes stage and 5 nodes stage).

soybean plants [5] = details: for % injury: N3001 non-transgenic soybean, 4 DAT, ANOVA mean; for % injury at 5 DAT Paraquat alone control 100 g ae/ha: paraquat alone 100 g ae/ha
Method: For this example, the plants were grown as described in the above example. Transgenic and non transgenic soybean plants carrying the DMO gene in their genome were either treated with Paraquat (Gramoxone®; Syngenta) to create oxidative stress or with dicamba followed by Paraquat at V3 stage. The dicamba rate was 1 lb/Acre or 1120 g ae/ha. […] Plants were then evaluated for paraquat injury by visually assessing injury at a particular day after treatment (DAT) for injury on a scale of 0 to 100 percent relative to untreated control plants, with zero representing “no” injury and 100% representing “complete” injury or death. Data were collected and analyzed using suitable statistical methods.
In another experiment, the effect of externally applied DCSA was tested for its benefit in protecting soybean plants from oxidative stress injury caused by Paraquat. Different amounts of DCSA were applied 24 hrs before applying Paraquat to test any correlation between the amount of DCSA applied and the extent of protection obtained from oxidative stress measured in terms of reduction in % injury as described above. Different levels of dicamba were also applied separately to test the same hypothesis.

SMILES: CNC.O=C(O)COc1ccc(Cl)cc1Cl [2,4-D]
- POST 2,4-D injury compared to treated non-transgenic control A3525 (DMOxRR2Y soybean stack): significantly (ANOVA test) lower

SMILES: CC(=O)Oc1ccccc1C(=O)O [ASA, acetyl salicylic acid]
- Doubling efficiency ([1]; 100 μM (each)): 0
- 10 inch pot survival ([1]; 100 μM (each)): 62
- Percent Pollination ([1]; 100 μM (each)): 86%
- Percent germination ([1]; 100 μM (each)): 87%
- Doubling efficiency ([1]; 250 μM (each)): 8
- 10 inch pot survival ([1]; 250 μM (each)): 60
- Percent Pollination ([1]; 250 μM (each)): 78%
- Percent germination ([1]; 250 μM (each)): 85%
- Doubling efficiency ([1]; 500 μM (each)): 5
- 10 inch pot survival ([1]; 500 μM (each)): 35
- Percent Pollination ([1]; 500 μM (each)): 71%
- Percent germination ([1]; 500 μM (each)): 68%

SMILES: O=S(=O)([O-])[O-].[Cu+2] [Cu, copper sulfate]
- Percent injury (soybean plants [2]): 45% and 45.0a Percent

SMILES: O=C(O)CNCP(=O)(O)O [Glyphosate, N-phosphonomethylglycine, reference compound]
- Severity rating (1-9) ([3]; 1 healthy, 9 dead, inoculated check 9): 3.5
- Plant survival rating (out of 10) ([3]; inoculated check 0): 10
- Severity rating (1-9) ([4]; 1 healthy, 9 dead, inoculated check 5): 2
- Plant survival rating (out of 10) ([4]; inoculated check 8): 10

SMILES: C[n+]1ccc(-c2cc[n+](C)cc2)cc1 [Paraquat]
- Percentage injury (cotton plants; cotton ST3273B2RF, Gramoxone 30 g a.i./ha): 35%
- Percentage injury (cotton plants; cotton ST3273B2RF, Gramoxone 70 g a.i./ha): 50%
- Percentage injury (cotton plants; cotton ST3273B2RF, Gramoxone 100 g a.i./ha): 50%
- Percentage injury (cotton plants; cotton ST4575BR, Gramoxone 30 g a.i./ha): 37.5%
- Percentage injury (cotton plants; cotton ST4575BR, Gramoxone 70 g a.i./ha): 42.5%
- Percentage injury (cotton plants; cotton ST4575BR, Gramoxone 100 g a.i./ha): 65%
- Percentage injury (cotton plants; cotton ST4646B2RF, Gramoxone 30 g a.i./ha): 31.5%
- Percentage injury (cotton plants; cotton ST4646B2RF, Gramoxone 70 g a.i./ha): 42.5%
- Percentage injury (cotton plants; cotton ST4646B2RF, Gramoxone 100 g a.i./ha): 70%
- Percentage injury (cotton plants; cotton ST6622RF, Gramoxone 30 g a.i./ha): 42.5%
- Percentage injury (cotton plants; cotton ST6622RF, Gramoxone 70 g a.i./ha): 50%
- Percentage injury (cotton plants; cotton ST6622RF, Gramoxone 100 g a.i./ha): 70%
- % injury (soybean plants [5]; paraquat 30 g ae/ha at V-3): 32.5%
- % injury (soybean plants [5]; paraquat 70 g ae/ha at V-3): 50.8%
- % injury (soybean plants [5]; paraquat 200 g ae/ha at V-3): 75%
- injury rate (soybean plants [5]; transgenic plants contacted with Paraquat alone (Table 2)): about 75%
- % injury at 5 DAT Paraquat alone control 100 g ae/ha (soybean plants [5]; transgenic soybean event 462-1-21): 75.83%
- % injury at 5 DAT Paraquat alone control 100 g ae/ha (soybean plants [5]; transgenic soybean event 469-13-19): 77.50%

SMILES: O=C(O)c1ccccc1O [SA, salicylic acid]
- Doubling efficiency ([1]; 100 μM (each)): 2
- 10 inch pot survival ([1]; 100 μM (each)): 48
- Percent Pollination ([1]; 100 μM (each)): 83%
- Percent germination ([1]; 100 μM (each)): 80%
- Doubling efficiency ([1]; 250 μM (each)): 3
- 10 inch pot survival ([1]; 250 μM (each)): 58
- Percent Pollination ([1]; 250 μM (each)): 85%
- Percent germination ([1]; 250 μM (each)): 85%
- Doubling efficiency ([1]; 500 μM (each)): 3
- 10 inch pot survival ([1]; 500 μM (each)): 77
- Percent Pollination ([1]; 500 μM (each)): 89%
- Percent germination ([1]; 500 μM (each)): 85%
